Data reported in the supplement of paper PMC10307832.

Assays:
Test in all cases: relative viability (nuclei count vs DMSO), 5 days (fraction); higher = more cells survive
Cediranib + Foretinib = compound: COc1cc2c(Oc3ccc4[nH]c(C)cc4c3F)ncnc2cc1OCCCN1CCCC1 [Cediranib] + COc1cc2c(Oc3ccc(NC(=O)C4(C(=O)Nc5ccc(F)cc5)CC4)cc3F)ccnc2cc1OCCCN1CCOCC1 [Foretinib] (partner 0.25 µM)
Method in brief: (§1)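 One day after seeding in 1536-well plates, lung cancer cell lines were dosed by pin tool. Dosing was either single-drug or a fixed anchor-drug dose plus five library-drug doses (not always all listed) in √10 steps. After 5 days, nuclei were stained in one fix-and-stain step and counted on 4× images, and relative viability is the nuclei count of treated wells over that of vehicle wells, given as the median of duplicate plates.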

Cediranib + Decitabine = compound: COc1cc2c(Oc3ccc4[nH]c(C)cc4c3F)ncnc2cc1OCCCN1CCCC1 [Cediranib] + Nc1ncn([C@H]2C[C@H](O)[C@@H](CO)O2)c(=O)n1 [Decitabine] (partner 2 µM)
Method in brief: as §1

Decitabine + OSI-027 = compound: Nc1ncn([C@H]2C[C@H](O)[C@@H](CO)O2)c(=O)n1 [Decitabine] + COc1cccc2cc(-c3nc([C@H]4CC[C@H](C(=O)O)CC4)n4ncnc(N)c34)[nH]c12 [OSI-027] (partner 0.5 µM)
Method in brief: as §1

[1] = compound: O=C(C[C@H]1NCCC[C@@H]1O)Cn1cnc2cc(Br)c(Cl)cc2c1=O (racemic) [Halofuginone] + CS(=O)(=O)N1CCN(Cc2cc3nc(-c4cccc5[nH]ncc45)nc(N4CCOCC4)c3s2)CC1 [Pictilisib] (partner 1 µM)
Method in brief: as §1

Cell Line	relative viability (Cediranib + Foretinib; first compound 0.04 µM)	relative viability (Cediranib + Foretinib; first compound 0.1265 µM)	relative viability (Cediranib + Foretinib; first compound 0.4 µM)	relative viability (Cediranib + Foretinib; first compound 1.265 µM)	relative viability (Cediranib + Foretinib; first compound 4 µM)	relative viability (Cediranib + Decitabine; first compound 0.04 µM)	relative viability (Cediranib + Decitabine; first compound 0.1265 µM)	relative viability (Cediranib + Decitabine; first compound 0.4 µM)	relative viability (Cediranib + Decitabine; first compound 1.265 µM)	relative viability (Cediranib + Decitabine; first compound 4 µM)	relative viability (Decitabine + OSI-027; first compound 0.04 µM)	relative viability (Decitabine + OSI-027; first compound 0.1265 µM)	relative viability (Decitabine + OSI-027; first compound 0.4 µM)	relative viability (Decitabine + OSI-027; first compound 1.265 µM)	relative viability (Decitabine + OSI-027; first compound 4 µM)	relative viability ([1]; first compound 0.001 µM)	relative viability ([1]; first compound 0.003162 µM)	relative viability ([1]; first compound 0.01 µM)	relative viability ([1]; first compound 0.03162 µM)	relative viability ([1]; first compound 0.1 µM)
COR-L 105	1.04	1.38	0.931	0.904	1.22	0.65	0.676	0.629	0.601	0.729	0.425	0.581	0.65	0.526	0.585	0.437	0.432	0.412	0.338	0.31
LCLC-97TM1	0.969	0.919	0.946	0.921	0.967	0.234	–	0.223	0.196	0.248	0.244	0.295	0.188	0.229	0.11	0.289	0.216	0.179	0.201	0.14
NCI-H520	0.859	0.656	0.626	0.731	0.576	0.572	0.588	0.502	0.488	0.459	0.309	0.242	0.234	0.215	0.21	0.301	0.295	0.281	0.243	0.181
NCI-H1993	0.798	0.936	0.763	0.739	0.53	–	0.629	0.666	0.518	0.651	0.593	0.599	0.519	0.514	0.548	0.788	0.749	0.891	0.807	0.803
NCI-H1437	1.34	1.22	1.24	1.25	1.32	0.67	0.602	0.621	0.562	0.639	0.717	0.732	0.495	0.382	0.3	0.429	0.536	0.414	0.402	0.24
LC-2-ad	1.12	0.581	0.883	1.04	0.891	0.803	0.779	0.784	0.744	0.822	0.738	0.705	0.663	0.457	0.479	0.66	0.551	0.492	0.455	0.269
HARA	0.92	–	0.766	0.868	0.706	0.595	0.593	0.517	0.782	0.582	0.251	0.257	0.164	0.112	0.111	0.556	0.461	0.402	0.436	0.235
NCI-H650	1.03	0.944	1	1.09	1.02	0.315	0.271	0.302	0.302	0.348	0.462	0.454	0.306	0.291	0.276	0.956	0.953	1.02	0.801	0.566
NCI-H1975	0.952	1.03	0.944	1.05	1.04	0.638	0.432	0.403	0.351	0.42	0.516	0.378	0.32	0.277	0.256	0.319	0.298	0.31	0.225	0.106
NCI-H2085	0.919	0.942	0.861	0.759	0.923	0.55	0.515	0.537	0.526	0.541	0.47	0.587	0.472	0.376	0.365	0.58	0.407	0.448	0.515	0.48
NCI-H3122	0.938	1.03	0.991	0.844	1.02	0.558	–	0.421	0.417	0.477	0.814	0.955	0.468	–	0.559	0.58	0.581	0.538	0.67	0.494
NCI-H522	–	–	–	–	–	0.702	0.746	0.76	0.661	0.656	0.695	0.827	0.561	0.609	0.582	–	–	–	–	–
NCI-H1563	0.976	1.09	0.908	0.958	0.936	–	–	–	–	–	0.791	0.811	0.767	0.774	0.76	0.671	0.644	0.685	0.588	0.575
NCI-H1703	0.468	0.37	0.247	0.33	0.337	–	–	–	–	–	–	–	–	–	–	0.252	0.264	0.247	0.214	0.193
NCI-H1792	–	–	–	–	–	–	0.503	0.48	0.501	0.715	0.74	0.727	0.712	0.539	0.505	0.336	0.228	0.3	0.34	0.243
NCI-H1648	–	–	–	–	–	0.44	0.501	0.448	0.48	0.481	0.266	0.236	0.264	0.267	0.26	–	–	–	–	–
EBC-1	0.109	0.107	0.103	0.104	0.0908	–	–	–	–	–	–	–	–	–	–	0.441	0.31	0.263	0.195	0.101
NCI-H1299	1.1	1.05	1.13	1.1	1.15	–	–	–	–	–	–	–	–	–	–	1.01	0.806	0.619	0.232	0.077
A549	0.903	1.07	0.858	0.975	0.899	0.449	0.115	0.272	0.258	0.319	–	–	–	–	–	0.569	0.547	0.53	0.347	0.0767
IA-LM	1.16	1.32	1.07	1.26	1.33	–	–	–	–	–	–	–	–	–	–	0.415	0.26	0.288	0.256	0.057
